In patent publication US12011447B2, “Pharmaceutical composition for treating thyroid cancer comprising tyrosine kinase activity inhibitor as active ingredient” (Kyungpook National University Industry-Academic Cooperation …, priority 2017, dated 2024):

What was measured:
8505C cells = assay: In vitro 125I uptake assay; type: cell-based, human; conditions: anaplastic thyroid cancer cells
Method: 8505C cells (1.25×10^5) were seeded and incubated in a 24-well plate for 24 hours, and then treated with TKI-0266 and further incubated for 24 hours. Thereafter, the medium was removed, and the cells were washed with bHBSS (Hank's balanced salt solution containing 0.5% BSA). The cells were incubated with 500 μl of bHBSS, 3.7 kBq carrier-free ^125I (Perkin-Elmer), and 10 μmol/L sodium iodide (specific activity of 740 MBq/mmol) at 37° C. for 30 minutes. Thereafter, the cells were washed twice with cold bHBSS and lysed by adding 500 μL of 2% SDS solution thereto. Radioactivity was measured using a Cobra II gamma-counter (Canberra Packard, Canada). The ^125I uptake values were normalized by comparing the amount of total protein determined by BCA protein assay kit.

[1] = test system: anaplastic thyroid cancer xenograft (8505C-PNIS-PCMV); assay: Tumor growth inhibition in xenograft mice (tumor size, R-luc BLI); type: in vivo, Balb/c nude mice; conditions: single agent administration
Method: Female Balb/c nude mice, 5.5-week old with an average weight of 18.9±0.37 g (mean±standard deviation [SD]), were purchased (Hamamatsu, Shizuoka, Japan). The mice were acclimated under specific pathogen-free conditions for one week before starting the experiment, and were maintained at a temperature of 20 to 25° C. and a relative humidity of 40 to 70%. To establish anaplastic thyroid cancer xenograft mouse models, 8505C-PNIS-PCMV s (5×10^6) were mixed with Matrigel (Corning) at a ratio of 1:1 and injected subcutaneously into the right flank region of each mouse.
In addition, in order to evaluate the effect of TKI-0266 administration on the treatment of thyroid cancer, mice for use in the experiment were divided into four groups (n=5): the vehicle group; the ^131I-administered group (injected intraperitoneally with 1 mCi Na-^131I on day 2 of the experiment; the TKI-0266-administered group (injected intraperitoneally with 50 mg/kg of TKI-0266 for 5 days); and the group co-administered with ^131I and TKI-0266 (injected intraperitoneally with 50 mg/kg of TKI-0266 for 5 days, and injected intravenously with 1 mCi Na-^131I on day 2; n=5). To measure the degree of tumor growth, h-coelenterazine (15 μg/ml) was administered to the mice by intravenous injection, and then the R-luc activity was monitored by BLI every 5 days.

| SMILES | iodine uptake on treatment with NIS inhibitor (8505C cells) | tumor size on days 6 and 11 [1] |
| --- | --- | --- |
| [K+].[O-][Cl+3]([O-])([O-])[O-] [KCIO4, reference compound] | completely blocked | – |
| [131I-].[Na+] [^131I, Na-^131I, reference compound] | – | continuous increase |
